Assay results from patent US12503452B2 (Curza Global, LLC, priority 2019, dated 2025).

Assays:
P. aeruginosa (Pa) = experiment: Broth microdilution minimum inhibitory concentration (MIC); assay type: cell-based; conditions: Pseudomonas aeruginosa, P. aeruginosa; growth medium supplemented with sodium bicarbonate; read-out: Pa MIC + bicarb
Procedure, shortened: (§1)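 MICs were run in triplicate per CLSI microdilution (modified, 8 dilution steps), inoculating 5×10^4 CFU/well prepared from colonies grown at 35±2° C to 0.5 McFarland. Media: CAMHB alone, with 6.25 or 25 mM final sodium bicarbonate, or with 0–50% heat-inactivated human serum.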

S. aureus (Sa) = experiment: as above; assay type: cell-based; conditions: Staphylococcus aureus, S. aureus; growth medium supplemented with sodium bicarbonate; read-out: Sa + bicarb MIC
Procedure, shortened: as §1

A. baumannii (Ab) = experiment: as above; assay type: cell-based; conditions: Acinetobacter baumannii; A. baumannii; growth medium supplemented with sodium bicarbonate; read-out: Ab + bicarb MIC
Procedure, shortened: as §1

E. faecalis (Ef) = experiment: as above; assay type: cell-based; conditions: Enterococcus faecalis, E. faecalis; growth medium supplemented with sodium bicarbonate; read-out: Ef + bicarb MIC
Procedure, shortened: as §1

E. coli (Ec) = experiment: as above; assay type: cell-based; conditions: Escherichia coli, E. coli; growth medium supplemented with sodium bicarbonate; read-out: E. coli + bicarb MIC
Procedure, shortened: as §1

[1] = tested on: E. coli S30 extract (bacterial protein synthesis); experiment: E. coli S30 extract coupled transcription-translation luciferase assay (inhibition of bacterial protein synthesis); assay type: biochemical; conditions: class by IC50 or % inhibition @ 1 μM, read-out: S30 IC50 (μM/% inhib.)
Procedure, shortened: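 Luminescent read-out of luciferase made from pBESTluc DNA by E. coli S30 extract after 1 h at 37 °C with compound in an 8-point 2-fold series. Background came from no-DNA reactions. Percent inhibition was calculated against water-only controls.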

[2] = target: Rabbit Reticulocyte Lysate (eukaryotic protein synthesis); experiment: Rabbit reticulocyte lysate luciferase assay (inhibition of eukaryotic protein synthesis); assay type: biochemical; conditions: class by IC50 or % inhibition @ 1 μM, read-out: Rabbit reticulocyte IC50 (μM/% inhib.)
Procedure, shortened: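 Compounds were tested in 8-point 2-fold dilution series for blocking luciferase synthesis in nuclease-treated rabbit reticulocyte lysate (30° C., 90 minutes). Luminescence read-out, corrected by no-RNA background, was expressed as % inhibition against water-only reactions.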

SMILES	MIC (P. aeruginosa (Pa)) [µg/mL]	MIC (S. aureus (Sa)) [µg/mL]	MIC (A. baumannii (Ab)) [µg/mL]	MIC (E. faecalis (Ef)) [µg/mL]	MIC (E. coli (Ec)) [µg/mL]	IC50 [1] [µM]	IC50 [2] [µM]
CC(C)(N)C(=O)N1CCN(C(=O)Nc2ccn(-c3ccc(CN(CCO)[C@H]4CC[C@H](N)CC4)cc3)c(=O)n2)CC1 [Compound 132]	> 32	< 8	> 32	> 32	< 8	< 0.5	> 1
C[C@](N)(CO)C(=O)N1CCN(C(=O)Nc2ccn(-c3ccc(CN4CC(CCN)C4)cc3)c(=O)n2)CC1 [Compound 136]	> 32	8 to 32	> 32	8 to 32	8 to 32	< 0.5	> 1
CC(C)(N)C(=O)N1CCN(C(=O)Nc2ccn(-c3ccc(CN4CC(O)(CN)C4)cc3)c(=O)n2)CC1 [Compound 137]	> 32	8 to 32	> 32	> 32	< 8	< 0.5	> 1
CC(C)(N)C(=O)N1CCN(C(=O)Nc2ccn(-c3ccc(CN(CCF)[C@H]4CC[C@H](N)CC4)cc3)c(=O)n2)CC1 [Compound 138]	> 32	< 8	> 32	> 32	< 8	0.5 to 1	> 1
Cc1cc(-n2ccc(NC(=O)N3CCN(C(=O)[C@@](C)(N)CO)CC3)nc2=O)ccc1CCN1CCCC(N)CC1 (stereo partly shown) [Compound 139]	8 to 32	< 8	> 32	< 8	< 8	< 0.5	> 1
Cc1cc(-n2ccc(NC(=O)N3CCN(C(=O)C(C)(C)N)CC3)nc2=O)ccc1CCN1CCCC(N)CC1 (stereo not shown) [Compound 140]	8 to 32	< 8	8 to 32	< 8	< 8	< 0.5	> 1
CC(C)(N)C(=O)N1CCN(C(=O)Nc2ccn(-c3ccc(CCN4CCCC(N)CC4)c(F)c3)c(=O)n2)CC1 (stereo not shown) [Compound 141]	8 to 32	< 8	> 32	< 8	< 8	< 0.5	> 1
CC(C)(N)C(=O)N1CCN(C(=O)Nc2ccn(-c3ccc(CCN4CCCC(N)CC4)c(C(F)(F)F)c3)c(=O)n2)CC1 (stereo not shown) [Compound 142]	8 to 32	< 8	8 to 32	< 8	< 8	< 0.5	> 1
CC(C)(N)C(=O)N1CCN(C(=O)Nc2ccn(-c3ccc(C[C@@H](N)C(=O)N4CCCC(N)CC4)cc3)c(=O)n2)CC1 (stereo partly shown) [Compound 143]	> 32	> 32	> 32	> 32	> 32	> 1	> 1
CC(C)(N)C(=O)N1CCN(C(=O)Nc2ccn(-c3ccc(C(N)C(=O)N4CC(N)C4)cc3)c(=O)n2)CC1 (stereo not shown) [Compound 144]	> 32	> 32	> 32	> 32	> 32	> 1	> 1
CC(C)(N)C(=O)N1CCN(C(=O)Nc2ccn(-c3ccc(C(N)C(=O)NC4CNC4)cc3)c(=O)n2)CC1 (stereo not shown) [Compound 145]	> 32	> 32	> 32	> 32	> 32	0.5 to 1	> 1
CC(C)(N)C(=O)N1CCN(C(=O)Nc2ccn(-c3ccc(C[C@H](N)C(=O)N4CC(N)C4)cc3)c(=O)n2)CC1 [Compound 146]	> 32	> 32	> 32	> 32	> 32	> 1	> 1
CC(C)(N)C(=O)N1CCN(C(=O)Nc2ccn(-c3ccc(C[C@H](N)C(=O)NC4CNC4)cc3)c(=O)n2)CC1 [Compound 147]	> 32	> 32	> 32	> 32	> 32	> 1	> 1
CC(C)(N)C(=O)N1CCN(C(=O)Nc2ccn(-c3ccc(C[C@H](N)C(=O)N4CCCC(N)CC4)cc3)c(=O)n2)CC1 (stereo partly shown) [Compound 148]	> 32	> 32	> 32	> 32	> 32	< 0.5	> 1
CC(Cc1ccc(-n2ccc(NC(=O)N3CCN(C(=O)C(C)(C)N)CC3)nc2=O)cc1)N(C)[C@H]1CC[C@@H](N)C1 (stereo partly shown) [Compound 149]	> 32	< 8	> 32	8 to 32	< 8	< 0.5	> 1
CC(Cc1ccc(-n2ccc(NC(=O)N3CCN(C(=O)C(C)(C)N)CC3)nc2=O)cc1)N[C@H]1CC[C@@H](N)C1 (stereo partly shown) [Compound 150]	> 32	< 8	> 32	> 32	< 8	0.5 to 1	> 1
CCN(C(C)Cc1ccc(-n2ccc(NC(=O)N3CCN(C(=O)C(C)(C)N)CC3)nc2=O)cc1)[C@H]1CC[C@@H](N)C1 (stereo partly shown) [Compound 151]	8 to 32	< 8	> 32	< 8	< 8	< 0.5	> 1
CC(Cc1ccc(-n2ccc(NC(=O)N3CCN(C(=O)C(C)(C)N)CC3)nc2=O)cc1)NC1CCC(CN)CC1 (stereo not shown) [Compound 152]	> 32	< 8	> 32	> 32	< 8	> 1	> 1
CC(Cc1ccc(-n2ccc(NC(=O)N3CCN(C(=O)C(C)(C)N)CC3)nc2=O)cc1)N(C)C1CCC(CN)CC1 (stereo not shown) [Compound 153]	> 32	< 8	> 32	> 32	< 8	> 1	> 1
CCN(C(C)Cc1ccc(-n2ccc(NC(=O)N3CCN(C(=O)C(C)(C)N)CC3)nc2=O)cc1)C1CCC(CN)CC1 (stereo not shown) [Compound 154]	> 32	< 8	> 32	< 8	< 8	< 0.5	> 1
CC(Cc1ccc(-n2ccc(NC(=O)N3CCN(C(=O)C(C)(C)N)CC3)nc2=O)cc1)NC[C@H]1C[C@H](N)C1 (stereo partly shown) [Compound 156]	> 32	< 8	> 32	8 to 32	< 8	< 0.5	> 1
CC(Cc1ccc(-n2ccc(NC(=O)N3CCN(C(=O)C(C)(C)N)CC3)nc2=O)cc1)N(C)C[C@H]1C[C@H](N)C1 (stereo partly shown) [Compound 157]	> 32	< 8	> 32	< 8	< 8	< 0.5	> 1
